Measurements: patent EP0839146B1, “PIPERAZINE DERIVATIVES AND THEIR USE AS 5-HT1A ANTAGONISTS” (AMERICAN HOME PRODUCTS CORPORATION, priority 1995, dated 1997)

How the values were obtained:
[1] = molecular target: α1 receptors; test: α1 binding affinity (procedure of Marrow et al)
Experimental: The compounds were tested for α1 binding affinity (column 3) by the procedure of A.L. Marrow et al, Mol. Pharmacol., 1986, 29, 321.

[2] = molecular target: T1, 5-HT1A receptor (Rattus norvegicus, UniProt P19327); test: 5-HT1A receptor antagonist activity: antagonism of the 8-OH-DPAT syndrome in rats after oral pretreatment; type: in vivo; set-up: from tissue; host or cells: whole animal (rat), in vivo
T1 sequence (P19327 1-422): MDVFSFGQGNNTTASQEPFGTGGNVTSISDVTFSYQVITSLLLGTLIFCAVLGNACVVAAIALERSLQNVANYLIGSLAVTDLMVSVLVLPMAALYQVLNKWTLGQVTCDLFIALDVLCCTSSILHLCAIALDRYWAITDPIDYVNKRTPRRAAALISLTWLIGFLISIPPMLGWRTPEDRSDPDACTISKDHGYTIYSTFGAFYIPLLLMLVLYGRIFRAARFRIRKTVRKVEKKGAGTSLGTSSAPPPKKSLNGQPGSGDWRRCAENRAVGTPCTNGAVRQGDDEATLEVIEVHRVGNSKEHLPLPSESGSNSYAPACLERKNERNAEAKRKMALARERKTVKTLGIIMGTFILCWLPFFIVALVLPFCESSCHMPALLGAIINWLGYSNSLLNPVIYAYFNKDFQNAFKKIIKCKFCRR
Experimental: 5-HT1A receptor antagonist activity (columns 5 and 6) is assessed by the ability of the selective 5-HT1A receptor agonist, 8-OH-DPAT, to induce 'the 8-OH-DPAT syndrome' in rats characterised by extended flat body posture, forepaw treading and hyperlocomotion. The 8-OH-DPAT syndrome is scored as present (definite syndrome response) or absent (equivocal or no syndrome response) during the period 0-5 min following intravenous (i.v.) administration of the test agonist via a lateral tail vein.
A range of doses, on a logarithmic scale and encompassing the expected ED50, were chosen for the test agonist following preliminary evaluation. […]
Test antagonists were administered orally (p.o.) 60 min, before i.v. administration of 8-OH-DPAT. ED50 values for 8-OH-DPAT were determined for the different pretreatment groups using the sequential up/down procedure as described above.
The response to the selective 5-HT1A receptor agonist, 8-OH-DPAT, is represented as an ED50 value for induction of the 8-OH-DPAT syndrome, which is determined using the sequential up/down analysis following intravenous administration. 5-HT1A antagonist activity is determined by the ability of the test compound to antagonise the response to 8-OH-DPAT, i.e. to increase the ED50 for induction of the 8-OH-DPAT syndrome compared with vehicle pretreatment. […]

[3] = molecular target: T1, 5-HT1A receptor; test: 5-HT1A binding affinity in rat hippocampal membrane homogenate (method of Alexander and Wood); set-up: in rat hippocampal membrane homogenate; from tissue; host or cells: rat hippocampus (membrane homogenate)
Experimental: The compounds were tested for 5-HT1A binding affinity (column 2) in rat hippocampal membrane homogenate by the method of B.S. Alexander and M.D. Wood, J. Pharm. Pharmacol., 1988, 40, 888-891.

Compound: C[C@H](CN(C(=O)C1CCCCC1)c1ccccn1)N1CCN(c2cccc3c2OCCO3)CC1 [Example A1]
- IC50 [1]: 0.625 µM
- 5-HT1A-antagonist Ratio (ED50 antagonist @ 3mg/kg po)/ED50 vehicle ([2]; ED50 of i.v. 8-OH-DPAT after test compound 3 mg/kg p.o. divided by ED50 after vehicle): 20
- 5-HT1A-antagonist activity MED ([2]; antagonist p.o. 60 min before i.v. 8-OH-DPAT, lowest dose at which ED50 confidence limits of antagonist and vehicle groups do not overlap): 1 mg/kg po
- Ratio 5HT1A/α1 ([3]; binding selectivity, ratio of 5-HT1A binding to α1-binding): 145
- IC50 ([3]; rat hippocampal membrane homogenate): 0.0043 µM
